# According to patent US20250101028A1, “HETEROCYCLIC COMPOUNDS, COMPOSITIONS THEREOF, AND METHODS OF TREATMENT THEREWITH” (BeiGene, Ltd., priority 2022, published 2025):
# Molecular target: T1, GST-tagged GDP-loaded KRAS G12V (amino acids 1-169) (Homo sapiens, UniProt P01116, G12V)
# T1 construct: GST-tagged GDP-loaded KRAS G12V (amino acids 1-169); made in house; host or cells: E. coli
# Assay: KRAS G12V probe displacement assay (TR-FRET)
# Format: binding
# Conditions: displacement of biotinylated probe 2 from GDP-loaded KRAS G12V
# Description: KRAS WT and KRAS G12V Probe Displacement Assay
# This assay was used to identify compounds which bind to GDP-loaded KRAS protein and are able to displace a biotinylated probe occupying the KRAS binding site. GST-tagged GDP-loaded WT KRAS (amino acids 1-169) and GST-tagged GDP-loaded KRAS G12V (amino acids 1-169) were expressed in E. coli and purified in house. All protein and reaction solutions were prepared in assay buffer containing 50 mM HEPES pH7.5, 50 mM NaCl, 1 mM MgCl2, 1 mM TCEP, 0.01% BSA, and 0.008% Brij-35. Purified WT KRAS (3 nM final concentration) or KRAS G12V protein (2 nM final concentration) was incubated with a 3-fold serially diluted compound in the assay plate (384 well microplate, black, Corning). Plates are incubated at 24° C. for 1 hr. Following the incubation, biotinylated probe 1 (60 nM final assay concentration) for WT KRAS and biotinylated probe 2 (2.5 nM final assay concentration) for KRAS G12V was added to the assay plate, respectively. After 1 hr incubation at 24° C., Mab Anti-GST-Tb cryptate (Cisbio) and Streptavidin-XL665 (Cisbio) were added and further incubated at 24° C. for another 1 hr. The TR-FRET signals (ex337 nm, em665 nm/620 nm) were read on BMG PHERAstar FSX instrument. The inhibition percentage of KRAS protein binding with biotinylated probe in presence of increasing concentrations of compounds was calculated based on the ratio of fluorescence at 665 nm to that at 620 nm. The IC50 value of each compound was calculated from fitting the data to the four-parameter logistic model by Dotmatics.
# T1 sequence (P01116 1-169 isoform P01116-2 G12V): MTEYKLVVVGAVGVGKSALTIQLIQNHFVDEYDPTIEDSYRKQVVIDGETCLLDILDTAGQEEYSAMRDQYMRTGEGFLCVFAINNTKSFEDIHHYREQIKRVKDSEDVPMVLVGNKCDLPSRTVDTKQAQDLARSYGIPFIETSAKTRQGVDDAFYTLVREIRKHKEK
row,Structure (SMILES),IC50 [nM]
1,"Nc1nc2c(-c3c(C(F)(F)F)cc4c(NC5CCCCC5)nc(OC[C@@]56CCCN5C[C@H](F)C6)nc4c3F)ccc(F)c2s1 [Example 27, 4-(4-(cyclohexylamino)-8-fluoro-2-(((2R,7aS)-2-fluorotetrahydro-1H-pyrrolizin-7a(5H)-yl)methoxy)-6-(trifluoromethyl)quinazolin-7-yl)-7-fluorobenzo[d]thiazol-2-amine]",503
2,"Nc1nc2c(-c3c(Cl)cc4c(NC5CC5)nc(OC[C@@]56CCCN5C[C@H](F)C6)nc4c3F)ccc(F)c2s1 [Example 28, 4-(6-chloro-4-(cyclopropylamino)-8-fluoro-2-(((2R,7aS)-2-fluorotetrahydro-1H-pyrrolizin-7a(5H)-yl)methoxy)quinazolin-7-yl)-7-fluorobenzo[d]thiazol-2-amine]",3.8
3,"Nc1nc2c(-c3c(Cl)cc4c(N[C@H]5[C@@H]6COC[C@@H]65)nc(OC[C@@]56CCCN5C[C@H](F)C6)nc4c3F)ccc(F)c2s1 [Example 29, 4-(4-(((1R,5S,6r)-3-oxabicyclo[3.1.0]hexan-6-yl)amino)-6-chloro-8-fluoro-2-(((2R,7aS)-2-fluorotetrahydro-1H-pyrrolizin-7a(5H)-yl)methoxy)quinazolin-7-yl)-7-fluorobenzo[d]thiazol-2-amine]",15
4,"CC(=O)N1C[C@@H]2[C@H](C1)[C@H]2Nc1nc(OC[C@@]23CCCN2C[C@H](F)C3)nc2c(F)c(-c3ccc(F)c4sc(N)nc34)c(Cl)cc12 [Example 30, 1-((1R,5S,6s)-6-((7-(2-amino-7-fluorobenzo[d]thiazol-4-yl)-6-chloro-8-fluoro-2-(((2R,7aS)-2-fluorotetrahydro-1H-pyrrolizin-7a(5H)-yl)methoxy)quinazolin-4-yl)amino)-3-azabicyclo[3.1.0]hexan-3-yl)ethan-1-one]",3.5
5,"Nc1nc2c(-c3c(Cl)cc4c(NC5CCC5)nc(OC[C@@]56CCCN5C[C@H](F)C6)nc4c3F)ccc(F)c2s1 [Example 31, 4-(6-chloro-4-(cyclobutylamino)-8-fluoro-2-(((2R,7aS)-2-fluorotetrahydro-1H-pyrrolizin-7a(5H)-yl)methoxy)quinazolin-7-yl)-7-fluorobenzo[d]thiazol-2-amine]",57
6,"Nc1nc2c(-c3c(Cl)cc4c(NC56CC(C5)C6)nc(OC[C@@]56CCCN5C[C@H](F)C6)nc4c3F)ccc(F)c2s1 [Example 32, 4-(4-(bicyclo[1.1.1]pentan-1-ylamino)-6-chloro-8-fluoro-2-(((2R,7aS)-2-fluorotetrahydro-1H-pyrrolizin-7a(5H)-yl)methoxy)quinazolin-7-yl)-7-fluorobenzo[d]thiazol-2-amine]",21
7,"CC1CN(c2nc(OC[C@@]34CCCN3C[C@H](F)C4)nc3c(F)c(-c4ccc(F)c5sc(N)nc45)c(C(F)(F)F)cc23)C1 [Example 34, 7-fluoro-4-(8-fluoro-2-(((2R,7aS)-2-fluorotetrahydro-1H-pyrrolizin-7a(5H)-yl)methoxy)-4-(3-methylazetidin-1-yl)-6-(trifluoromethyl)quinazolin-7-yl)benzo[d]thiazol-2-amine]",52
8,CC1CCN1c1nc(OC[C@@]23CCCN2C[C@H](F)C3)nc2c(F)c(-c3ccc(F)c4sc(N)nc34)c(C(F)(F)F)cc12 (stereo partly drawn) [Example 35],30
9,"CC1(C)CCN1c1nc(OC[C@@]23CCCN2C[C@H](F)C3)nc2c(F)c(-c3ccc(F)c4sc(N)nc34)c(C(F)(F)F)cc12 [Example 36, 4-(4-(2,2-dimethylazetidin-1-yl)-8-fluoro-2-(((2R,7aS)-2-fluorotetrahydro-1H-pyrrolizin-7a(5H)-yl)methoxy)-6-(trifluoromethyl)quinazolin-7-yl)-7-fluorobenzo[d]thiazol-2-amine]",19
10,"Nc1nc2c(-c3c(C(F)(F)F)cc4c(N5CC(F)(F)C5)nc(OC[C@@]56CCCN5C[C@H](F)C6)nc4c3F)ccc(F)c2s1 [Example 38, 4-(4-(3,3-difluoroazetidin-1-yl)-8-fluoro-2-(((2R,7aS)-2-fluorotetrahydro-1H-pyrrolizin-7a(5H)-yl)methoxy)-6-(trifluoromethyl)quinazolin-7-yl)-7-fluorobenzo[d]thiazol-2-amine]",25
11,"N#CCC1CN(c2nc(OC[C@@]34CCCN3C[C@H](F)C4)nc3c(F)c(-c4ccc(F)c5sc(N)nc45)c(C(F)(F)F)cc23)C1 [Example 40, 2-(1-(7-(2-amino-7-fluorobenzo[d]thiazol-4-yl)-8-fluoro-2-(((2R,7aS)-2-fluorotetrahydro-1H-pyrrolizin-7a(5H)-yl)methoxy)-6-(trifluoromethyl)quinazolin-4-yl)azetidin-3-yl)acetonitrile]",12
12,"N#CCCC1CN(c2nc(OC[C@@]34CCCN3C[C@H](F)C4)nc3c(F)c(-c4ccc(F)c5sc(N)nc45)c(C(F)(F)F)cc23)C1 [Example 41, 3-(1-(7-(2-amino-7-fluorobenzo[d]thiazol-4-yl)-8-fluoro-2-(((2R,7aS)-2-fluorotetrahydro-1H-pyrrolizin-7a(5H)-yl)methoxy)-6-(trifluoromethyl)quinazolin-4-yl)azetidin-3-yl)propanenitrile]",12
13,"CC1(C#N)CN(c2nc(OC[C@@]34CCCN3C[C@H](F)C4)nc3c(F)c(-c4ccc(F)c5sc(N)nc45)c(C(F)(F)F)cc23)C1 [Example 42, 1-(7-(2-amino-7-fluorobenzo[d]thiazol-4-yl)-8-fluoro-2-(((2R,7aS)-2-fluorotetrahydro-1H-pyrrolizin-7a(5H)-yl)methoxy)-6-(trifluoromethyl)quinazolin-4-yl)-3-methylazetidine-3-carbonitrile]",70
14,"CS(=O)(=O)C1CN(c2nc(OC[C@@]34CCCN3C[C@H](F)C4)nc3c(F)c(-c4ccc(F)c5sc(N)nc45)c(C(F)(F)F)cc23)C1 [Example 44, 7-fluoro-4-(8-fluoro-2-(((2R,7aS)-2-fluorotetrahydro-1H-pyrrolizin-7a(5H)-yl)methoxy)-4-(3-(methylsulfonyl)azetidin-1-yl)-6-(trifluoromethyl)quinazolin-7-yl)benzo[d]thiazol-2-amine]",14
15,"COC1CN(c2nc(OC[C@@]34CCCN3C[C@H](F)C4)nc3c(F)c(-c4ccc(F)c5sc(N)nc45)c(C(F)(F)F)cc23)C1 [Example 45, 7-fluoro-4-(8-fluoro-2-(((2R,7aS)-2-fluorotetrahydro-1H-pyrrolizin-7a(5H)-yl)methoxy)-4-(3-methoxyazetidin-1-yl)-6-(trifluoromethyl)quinazolin-7-yl)benzo[d]thiazol-2-amine]",15
16,"CC1(O)CN(c2nc(OC[C@@]34CCCN3C[C@H](F)C4)nc3c(F)c(-c4ccc(F)c5sc(N)nc45)c(C(F)(F)F)cc23)C1 [Example 46, 1-(7-(2-amino-7-fluorobenzo[d]thiazol-4-yl)-8-fluoro-2-(((2R,7aS)-2-fluorotetrahydro-1H-pyrrolizin-7a(5H)-yl)methoxy)-6-(trifluoromethyl)quinazolin-4-yl)-3-methylazetidin-3-ol]",7.1
17,"CC1C(O)CN1c1nc(OC[C@@]23CCCN2C[C@H](F)C3)nc2c(F)c(-c3ccc(F)c4sc(N)nc34)c(C(F)(F)F)cc12 (stereo partly drawn) [Example 47, 1-(7-(2-amino-7-fluorobenzo[d]thiazol-4-yl)-8-fluoro-2-(((2R,7aS)-2-fluorotetrahydro-1H-pyrrolizin-7a(5H)-yl)methoxy)-6-(trifluoromethyl)quinazolin-4-yl)-2-methylazetidin-3-ol]",1.9
18,"Nc1nc2c(-c3c(C(F)(F)F)cc4c(N5CC(CO)C5)nc(OC[C@@]56CCCN5C[C@H](F)C6)nc4c3F)ccc(F)c2s1 [Example 48, (1-(7-(2-amino-7-fluorobenzo[d]thiazol-4-yl)-8-fluoro-2-(((2R,7aS)-2-fluorotetrahydro-1H-pyrrolizin-7a(5H)-yl)methoxy)-6-(trifluoromethyl)quinazolin-4-yl)azetidin-3-yl)methanol]",4.1
19,"Nc1nc2c(-c3c(C(F)(F)F)cc4c(N5CC[C@@H]5CO)nc(OC[C@@]56CCCN5C[C@H](F)C6)nc4c3F)ccc(F)c2s1 [Example 49, ((2R)-1-(7-(2-amino-7-fluorobenzo[d]thiazol-4-yl)-8-fluoro-2-(((2R,7aS)-2-fluorotetrahydro-1H-pyrrolizin-7a(5H)-yl)methoxy)-6-(trifluoromethyl)quinazolin-4-yl)azetidin-2-yl) methanol]",3
20,"Nc1nc2c(-c3c(C(F)(F)F)cc4c(N5CCCC5)nc(OC[C@@]56CCCN5C[C@H](F)C6)nc4c3F)ccc(F)c2s1 [Example 50, 7-fluoro-4-(8-fluoro-2-(((2R,7aS)-2-fluorotetrahydro-1H-pyrrolizin-7a(5H)-yl)methoxy)-4-(pyrrolidin-1-yl)-6-(trifluoromethyl)quinazolin-7-yl)benzo[d]thiazol-2-amine]",13
21,"Nc1nc2c(-c3c(C(F)(F)F)cc4c(N5CC[C@@H](F)C5)nc(OC[C@@]56CCCN5C[C@H](F)C6)nc4c3F)ccc(F)c2s1 [Example 51, 7-fluoro-4-(8-fluoro-4-((R)-3-fluoropyrrolidin-1-yl)-2-(((2R,7aS)-2-fluorotetrahydro-1H-pyrrolizin-7a(5H)-yl)methoxy)-6-(trifluoromethyl)quinazolin-7-yl)benzo[d]thiazol-2-amine]",11
